row,melting point [°C],Structure (SMILES)
1,49,"CC(=O)N1CCCCc2nc(-c3ccc(O[C@H]4C[C@H](N5CCCCC5)C4)cc3)sc21 [Compound 31, 4-acetyl-2-{4-[(trans-3-piperidin-1-ylcyclobutyl)oxy]phenyl}-5,6,7,8-tetrahydro-4H-[1,3]thiazolo[5,4-b]azepine]"
2,150 to 154,"Cc1n[nH]nc1C(=O)N1CCc2nc(-c3ccc(O[C@H]4C[C@H](N5CCCCC5)C4)cc3)sc2C1 [Compound 35, 5-[(5-methyl-2H-1,2,3-triazol-4-yl)carbonyl]-2-{4-[(trans-3-piperidin-1-ylcyclobutyl)oxy]phenyl}-4,5,6,7-tetrahydro[1,3]thiazolo[5,4-c]pyridine]"
3,141.9,"CC(=O)N1CCc2oc(-c3ccc(O[C@H]4C[C@H](N5CCCCC5)C4)cc3)nc2C1 [Compound 28, 5-acetyl-2-{4-[(trans-3-piperidin-1-ylcyclobutyl)oxy]phenyl}-4,5,6,7-tetrahydro[1,3]oxazolo[4,5-c]pyridine]"
4,154.2,"CC(=O)N1CCc2sc(-c3ccc(O[C@H]4C[C@H](N5CCCCC5)C4)cc3)nc2C1 [Compound 29, 5-acetyl-2-{4-[(trans-3-piperidin-1-ylcyclobutyl)oxy]phenyl}-4,5,6,7-tetrahydro[1,3]thiazolo[4,5-c]pyridine]"
5,165 to 172,"c1cc2nc(-c3ccc(O[C@H]4C[C@H](N5CCCCC5)C4)cc3)[nH]c2cn1 [Compound 69, 2-{4-[(trans-3-piperidin-1-ylcyclobutyl)oxy]phenyl}-3H-imidazo[4,5-c]pyridine]"
6,178,"O=C(N1CCc2nc(-c3ccc(O[C@H]4C[C@H](N5CCCCC5)C4)cc3)sc2C1)C1(O)CC1 [Compound 46, 1-{[2-{4-[(trans-3-piperidin-1-ylcyclobutyl)oxy]phenyl}-6,7-dihydro[1,3]thiazolo[5,4-c]pyridin-5(4H)-yl]carbonyl}cyclopropanol]"

# The next lines start with the compound.
row,Structure (SMILES),melting point [°C]
1,"CCNC(=O)N1CCc2nc(-c3ccc(O[C@H]4C[C@H](N5CCCCC5)C4)cc3)sc2C1 [Compound 21, N-ethyl-2-{4-[(trans-3-piperidin-1-ylcyclobutyl)oxy]phenyl}-6,7-dihydro[1,3]thiazolo[5,4-c]pyridine-5(4H)-carboxamide]",200
2,"NC(=O)N1CCc2nc(-c3ccc(O[C@H]4C[C@H](N5CCCCC5)C4)cc3)sc2C1 [Compound 10, 2-{4-[(trans-3-piperidin-1-ylcyclobutyl)oxy]phenyl}-6,7-dihydro[1,3]thiazolo[5,4-c]pyridine-5(4H)-carboxamide]",199
3,"COC(=O)CN1CCc2nc(-c3ccc(O[C@H]4C[C@H](N5CCCCC5)C4)cc3)sc2C1 [Compound 26, methyl [2-{4-[(trans-3-piperidin-1-ylcyclobutyl)oxy]phenyl}-6,7-dihydro[1,3]thiazolo[5,4-c]pyridin-5(4H)-yl]acetate]",221
4,"O[C@H]1C[C@@H](N2CCc3nc(-c4ccc(O[C@H]5C[C@H](N6CCCCC6)C5)cc4)sc3C2)C1 [Compound 24, cis-3-[2-{4-[(trans-3-piperidin-1-ylcyclobutyl)oxy]phenyl}-6,7-dihydro[1,3]thiazolo[5,4-c]pyridin-5(4H)-yl]cyclobutanol]",169
5,"COCC(=O)N1CCc2nc(-c3ccc(O[C@H]4C[C@H](N5CCCCC5)C4)cc3)sc2C1 [Compound 2, 5-(methoxyacetyl)-2-{4-[(trans-3-piperidin-1-ylcyclobutyl)oxy]phenyl}-4,5,6,7-tetrahydro[1,3]thiazolo[5,4-c]pyridine]",128
6,"CC(=O)N1CCc2nc(-c3ccc(O[C@H]4C[C@H](N5CCOCC5)C4)cc3)sc2C1 [Compound 8, 5-acetyl-2-{4-[(trans-3-morpholin-4-ylcyclobutyl)oxy]phenyl}-4,5,6,7-tetrahydro[1,3]thiazolo[5,4-c]pyridine]",161.6 to 162.2
7,"O=S(=O)(N1CCOCC1)N1CCc2nc(-c3ccc(O[C@H]4C[C@H](N5CCCCC5)C4)cc3)sc2C1 [Compound 7, 5-(morpholin-4-ylsulfonyl)-2-{4-[(trans-3-piperidin-1-ylcyclobutyl)oxy]phenyl}-4,5,6,7-tetrahydro[1,3]thiazolo[5,4-c]pyridine]",178
8,"c1cc(-c2nc3c(s2)CNCC3)ccc1O[C@H]1C[C@H](N2CCCCC2)C1 [Compound 5, 2-{4-[(trans-3-piperidin-1-ylcyclobutyl)oxy]phenyl}-4,5,6,7-tetrahydro[1,3]thiazolo[5,4-c]pyridine]",144.5
